Source: patent US5540937A, “Process for preparing microspheres for the prolonged release of the LHRH hormone and its analogues, microspheres and formulations obtained” (Rhone Merieux, priority 1992, dated 1996)

Assay: solubility of the peptide in the continuous phase
Assay type: physicochemical
Conditions: continuous aqueous phase (demineralized water containing 1% PVA)
From the text: Although the solubility of this peptide in water is high, high encapsulation yields are obtained.

solubility in the continuous phase: about 45 mg/ml
SMILES: CC(C)C[C@H](NC(=O)[C@@H](Cc1c[nH]c2ccccc12)NC(=O)[C@H](Cc1ccc(O)cc1)NC(=O)[C@H](CO)NC(=O)[C@H](Cc1c[nH]c2ccccc12)NC(=O)[C@H](Cc1c[nH]cn1)NC(=O)[C@@H]1CCC(=O)N1)C(=O)N[C@@H](CCCNC(=N)N)C(=O)N1CCC[C@H]1C(=O)NCC(N)=O [[D-Trp^6]-LHRH]
